In ChEMBL document CHEMBL1150936, “Antioxidative bromoindole derivatives from the mid-intestinal gland of the muricid gastropod Drupella fragum” (J Nat Prod, 1998) one finds Activity (milliequivalent/kg) data, which are given here for 5 molecules.

The nature of this assay: Antioxidant activity assessed as peroxide value relative to control. It counts as functional.
Regarding `Oc1cc2cc[nH]c2cc1Br`, the Activity (milliequivalent/kg) stood at 0.036.
Then `Oc1cc(Br)c(O)c2[nH]ccc12`, with 0.106; and `Cc1cc(C(C)(C)C)c(O)c(C(C)(C)C)c1`, with 0.031.
The result for `Cc1c(C)c2c(c(C)c1O)CC[C@@](C)(CCC[C@H](C)CCC[C@H](C)CCCC(C)C)O2` reads 0.062; that for `Oc1c(Br)cc2[nH]ccc2c1O`, 0.194.
